This data set can be described thus: Single-dose pharmacokinetic study in healthy volunteers, plasma concentrations by LC-MS/MS. The class given is in vivo, human. The conditions noted are these: single oral dose of 20 mg pantoprazole or 10 mg omeprazole, 20 healthy volunteers, fasted.

Description: An open label, randomized, single‐dose pharmacokinetic study in healthy volunteers was conducted in cross‐over design.
The subjects presented to the study facilities fasted in the morning. Three hours after drug intake the subjects received a meal on both study days. […] Venous blood samples (7 mL each) were drawn into EDTA‐containing tubes. Blood samples were centrifuged immediately after blood sampling for 10 min at 2000g to generate blood plasma. Blood plasma was aliquoted and stored at −32 °C until analysis.
Probe drugs and metabolite concentrations were determined using a liquid‐chromatography tandem mass spectrometer (LC–MS/MS) system consisting of an Agilent 1290 Infinity II UHPLC coupled to a Sciex QTRAP6500 + triple quadrupole mass spectrometer.
The total chromatographic method length was increased from 8.5 to 8.8 min. […] Samples were vortexed for 10 s and centrifuged for 20 min at 17.000 x g and 4 °C. A total of 40 μl supernatant were diluted with 40 μl LC grade water, vortexed briefly and centrifuged again for 5 min at 17.000 x g and 4 °C.
The samples were vortexed for 10 s and centrifuged for 20 min at 4 °C and 17.000 x g. […]
The AUC0‐8h metabolic ratios (MR) were calculated as follows: AUC0‐8h MR = AUC0‐8h, metabolite/AUC0‐8h, substrate. […] Statistical significance was assessed using non‐parametric Kruskal‐Wallis test with Dunn's post hoc test. […]

`COc1ccnc(C[S+]([O-])c2nc3ccc(OC(F)F)cc3[nH]2)c1OC` (stereo not shown) [pantoprazole]: the tmax worked out at 2 h.

These data come from article PMC13619035 (British Journal of Clinical Pharmacology, 2026).
